# Reference: ChEMBL document CHEMBL3414448, “Advances in the discovery of novel antimicrobials targeting the assembly of bacterial cell division protein FtsZ” (Eur J Med Chem, 2015)
# What was measured:
# [1] = test system: Klebsiella pneumoniae; test: Antimicrobial activity against ESBL producing Klebsiella pneumoniae ATCC 700603; format: functional
# [2] = test system: Enterobacter cloacae; test: Antimicrobial activity against multidrug-resistant Enterobacter cloacae 12161389; format: functional
# [3] = test system: Enterococcus faecium; test: Antimicrobial activity against ampicillin-resistant and levofloxacin-resistant Enterococcus faecium 12160560; format: functional
# [4] = test system: Escherichia coli; test: Antimicrobial activity against Escherichia coli ATCC 35218; format: functional
# [5] = test system: Pseudomonas aeruginosa; test: Antimicrobial activity against Pseudomonas aeruginosa ATCC 27853; format: functional
# [6] = test system: Bacillus subtilis; test: Antimicrobial activity against Bacillus subtilis 168; format: functional
# [7] = test system: Staphylococcus aureus; test: Antimicrobial activity against methicillin-sensitive Staphylococcus aureus ATCC 29213; format: functional
# [8] = test system: Enterococcus faecalis; test: Antimicrobial activity against Enterococcus faecalis ATCC 29212; format: functional
# [9] = test system: Streptococcus pneumoniae; test: Antimicrobial activity against Streptococcus pneumoniae ATCC 49619; format: functional
# [10] = test system: Acinetobacter baumannii; test: Antimicrobial activity against multidrug-resistant Acinetobacter baumannii 12159796; format: functional
# [11] = test system: Staphylococcus aureus; test: Antimicrobial activity against methicillin-resistant Staphylococcus aureus; format: functional
# [12] = test system: Enterococcus; test: Antimicrobial activity against […]-resistant Enterococcus; format: functional
# [13] = test system: Staphylococcus aureus; test: Antimicrobial activity against multidrug-resistant Staphylococcus aureus; format: functional
# [14] = biological target: T1, Cell division protein FtsZ (Escherichia coli K-12, UniProt P0A9A6); test: Inhibition of Escherichia coli FtsZ GTPase activity
# T1 sequence (P0A9A6 whole entry): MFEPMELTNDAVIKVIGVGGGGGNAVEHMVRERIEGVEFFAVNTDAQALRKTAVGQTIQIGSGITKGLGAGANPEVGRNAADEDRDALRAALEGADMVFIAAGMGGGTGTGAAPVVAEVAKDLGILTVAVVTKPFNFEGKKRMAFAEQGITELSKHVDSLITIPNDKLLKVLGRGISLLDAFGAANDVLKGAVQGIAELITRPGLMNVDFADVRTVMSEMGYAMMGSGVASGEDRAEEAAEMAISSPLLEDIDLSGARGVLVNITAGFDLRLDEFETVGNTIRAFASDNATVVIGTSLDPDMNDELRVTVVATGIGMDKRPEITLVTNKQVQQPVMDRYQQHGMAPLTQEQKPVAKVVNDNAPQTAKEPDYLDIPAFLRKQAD
# [15] = test system: Staphylococcus aureus; test: Antimicrobial activity against Staphylococcus aureus UAMS1; format: functional
# [16] = test system: Staphylococcus aureus; test: Antimicrobial activity against community acquired methicillin-resistant Staphylococcus aureus USA300-LAC; format: functional
# [17] = test system: Staphylococcus; test: Antimicrobial activity against Staphylococcus relative to PC190723; format: functional
# [18] = test system: Staphylococcus; test: Antimicrobial activity against Staphylococcus; format: functional
# [19] = Selectivity index, ratio of IC50 for human HeLa cells to MIC for Staphylococcus aureus MR12160636
# [20] = test system: Escherichia coli; test: Antimicrobial activity against Escherichia coli; format: functional
# [21] = Inhibition of FtsZ (unknown origin) assessed as reduction in enzyme GTPase activity
# [22] = test system: Staphylococcus aureus; test: Antimicrobial activity against Staphylococcus aureus; format: functional
# [23] = test system: Bacillus subtilis; test: Antimicrobial activity against Bacillus subtilis; format: functional
structure (smiles),measurement,setting,value
O=C(Oc1cc(OC(=O)c2cc(O)c(O)c(O)c2)c2ccccc2c1)c1cc(O)c(O)c(O)c1,MIC,[1],128 µg/mL
same,MIC,[2],128 µg/mL
same,MIC,[3],64 µg/mL
same,MIC,[4],128 µg/mL
same,MIC,[5],128 µg/mL
same,MIC,[6],64 µg/mL
same,MIC,[7],32 µg/mL
same,MIC,[8],64 µg/mL
same,MIC,[9],64 µg/mL
same,MIC,[10],64 µg/mL
Oc1cc(O)c2c(c1)C/C(Cl)=C\Cc1cc(c(Cl)cc1O)Oc1c(O)cc(cc1O)C/C(Cl)=C\Cc1cc(c(Cl)cc1O)O2,MIC,[11],1.5 µg/mL
same,MIC,[12],2.9 µg/mL
same,MIC,[13],1.3 µg/mL
COc1cc(C/C=C(/Cl)Cc2cc(O)cc(O)c2)c(OC)cc1Cl,IC50,[14],37 µM
same,MIC,[15],1 µg/mL
same,MIC,[16],1 µg/mL
NC(=O)c1c(F)ccc(O[C@H](CO)c2nc(-c3ccc(C(F)(F)F)cc3)c(Br)o2)c1F,Ratio,[17],4
same,MIC,[18],0.12 µg/mL
O=C(Oc1cc(OC(=O)c2cc(O)cc(O)c2)c2ccccc2c1)c1cc(O)c(O)c(O)c1,MIC,[1],128 µg/mL
same,MIC,[2],128 µg/mL
same,MIC,[3],32 µg/mL
same,MIC,[4],128 µg/mL
same,MIC,[5],64 µg/mL
same,MIC,[6],16 µg/mL
same,MIC,[7],16 µg/mL
same,MIC,[8],32 µg/mL
same,MIC,[9],32 µg/mL
same,MIC,[10],64 µg/mL
O=C(Oc1cc(OC(=O)c2ccc(O)c(Cl)c2)c2ccccc2c1)c1ccc(O)c(Cl)c1,MIC,[1],128 µg/mL
same,MIC,[2],128 µg/mL
same,MIC,[3],4 µg/mL
same,MIC,[4],128 µg/mL
same,MIC,[5],64 µg/mL
same,MIC,[6],4 µg/mL
same,MIC,[7],8 µg/mL
same,Ratio,[19],5
same,MIC,[8],2 µg/mL
same,MIC,[9],32 µg/mL
same,MIC,[10],32 µg/mL
Cc1nc(-c2cccs2)cc([C@H]2CN3CC[C@H]2C[C@@H]3CNC(=O)CCCC(=O)O)n1,MIC,[20],192 µg/mL
same,IC50,[21],317 µM
same,MIC,[22],384 µg/mL
CCC(CC)c1cc([C@H]2CN3CC[C@H]2C[C@@H]3CNCc2ccc(CO)o2)nc(-c2ccncc2)n1,MIC,[20],36 µg/mL
same,IC50,[21],73.2 µM
same,MIC,[22],24 µg/mL
CCC(CC)c1cc([C@H]2CN3CC[C@H]2C[C@@H]3CNCc2ccco2)nc(-c2ccncc2)n1,MIC,[20],72 µg/mL
same,IC50,[21],55.7 µM
same,MIC,[22],12 µg/mL
CCC(CC)c1cc([C@H]2CN3CC[C@H]2C[C@@H]3CN)nc(-c2ccncc2)n1,MIC,[20],18 µg/mL
same,IC50,[21],37.5 µM
same,MIC,[22],9 µg/mL
O=C1C[C@@H](c2ccccc2)Oc2c(Cc3cc(Cc4ccccc4O)ccc3O)c(O)c(Cc3cc(Cc4ccccc4O)ccc3O)c(O)c21,MIC,[22],1.16 µg/mL
same,MIC,[23],1.77 µg/mL
same,IC50,[14],8.3 µM
Oc1cc(O)cc(C/C(Cl)=C\Cc2cc(O)c(Cl)cc2O)c1,MIC,[15],1 µg/mL
same,MIC,[16],1 µg/mL
